Laboratory results taken from a polymer gas permeability compilation.

Row | CO2 permeability | N2 permeability | O2 permeability | CH4 permeability | H2 permeability | Structure (SMILES)
1 | 54 Barrer | 2.58 Barrer | 15.2 Barrer | 0.911 Barrer |  | *C(=O)c1ccc(C(c2ccc3c(c2)C(=O)n2c-3nc3cc4nc(*)n(*)c4cc32)(C(F)(F)F)C(F)(F)F)cc1* (repeat unit)
2 | 121 Barrer | 5.8 Barrer | 27.5 Barrer |  | 212 Barrer | *NC(=O)c1ccc(C(c2ccc(C(=O)Nc3c(C)cc4c(c3C)C3c5ccccc5C4c4cc(C)c(*)c(C)c43)cc2)(C(F)(F)F)C(F)(F)F)cc1 (repeat unit)
3 | 6.11 Barrer | 0.259 Barrer | 1.57 Barrer | 0.125 Barrer | 23.7 Barrer | *c1ccc(Oc2cccc(N3C(=O)c4ccc(C(c5ccc6c(c5)C(=O)N(*)C6=O)(C(F)(F)F)C(F)(F)F)cc4C3=O)c2)cc1 (repeat unit)
4 | 23.1 Barrer | 0.87 Barrer | 4.66 Barrer | 0.66 Barrer |  | *c1ccc(Sc2ccc(N3C(=O)c4ccc(C(c5ccc6c(c5)C(=O)N(*)C6=O)(C(F)(F)F)C(F)(F)F)cc4C3=O)cc2)cc1 (repeat unit)
5 | 8.92 Barrer | 0.34 Barrer | 1.77 Barrer | 0.28 Barrer |  | *c1ccc(Sc2ccc(Sc3ccc(N4C(=O)c5ccc(C(c6ccc7c(c6)C(=O)N(*)C7=O)(C(F)(F)F)C(F)(F)F)cc5C4=O)cc3)cc2)cc1 (repeat unit)
6 | 6.62 Barrer | 0.29 Barrer | 1.46 Barrer | 0.26 Barrer |  | *c1ccc(Sc2ccc(Sc3ccc(Sc4ccc(Sc5ccc(N6C(=O)c7ccc(C(c8ccc9c(c8)C(=O)N(*)C9=O)(C(F)(F)F)C(F)(F)F)cc7C6=O)cc5)cc4)cc3)cc2)cc1 (repeat unit)
7 | 3.21 Barrer | 0.11 Barrer | 0.76 Barrer | 0.06 Barrer | 4.52 Barrer | *c1ccc2c(-c3c(O)ccc4cc(N5C(=O)c6ccc(C(=O)c7ccc8c(c7)C(=O)N(*)C8=O)cc6C5=O)ccc34)c(O)ccc2c1 (repeat unit)
8 | 5.05 Barrer | 0.23 Barrer | 1.19 Barrer | 0.12 Barrer | 6.56 Barrer | *c1ccc2c(-c3c(OC(C)=O)ccc4cc(N5C(=O)c6ccc(C(c7ccc8c(c7)C(=O)N(*)C8=O)(C(F)(F)F)C(F)(F)F)cc6C5=O)ccc34)c(OC(C)=O)ccc2c1 (repeat unit)
9 | 294 Barrer | 13 Barrer | 65 Barrer | 8.1 Barrer | 376 Barrer | *c1ccc2c(c1)-c1nc3ccc(-c4ccc5c(c4)nc4n5C(=O)c5cc(C(c6ccc7c(c6)C(=O)N(*)C7=O)(C(F)(F)F)C(F)(F)F)ccc5-4)cc3n1C2=O (repeat unit)
10 | 1520 Barrer | 65 Barrer | 208 Barrer | 129 Barrer | 624 Barrer | *c1ccc2c(c1)C1(CC2(C)C)CC(C)(C)c2ccc(N3C(=O)c4cc5c(cc4C3=O)C3(CC(C)(C)c4cc6c(cc43)C(=O)N(*)C6=O)CC5(C)C)cc21 (repeat unit)
11 | 131 Barrer | 5.32 Barrer | 28.1 Barrer | 3.65 Barrer | 212 Barrer | *c1ccc2c(c1)C1c3ccccc3C2c2ccc(N3C(=O)c4ccc(C(c5ccc6c(c5)C(=O)N(*)C6=O)(C(F)(F)F)C(F)(F)F)cc4C3=O)cc21 (repeat unit)
12 | 32.2 Barrer | 1.27 Barrer | 7.85 Barrer | 0.63 Barrer |  | *c1ccc2c(c1)Cc1cc(N3C(=O)c4ccc(C(c5ccc6c(c5)C(=O)N(*)C6=O)(C(F)(F)F)C(F)(F)F)cc4C3=O)ccc1-2 (repeat unit)
13 | 26.3 Barrer | 1.1 Barrer | 5.85 Barrer | 0.6 Barrer | 60.2 Barrer | *c1ccc2c3c(ccc2c1)OC1CC3c2c(ccc3cc(N4C(=O)c5ccc(C(c6ccc7c(c6)C(=O)N(*)C7=O)(C(F)(F)F)C(F)(F)F)cc5C4=O)ccc23)O1 (repeat unit)
14 | 29.9 Barrer | 1.2 Barrer | 7.2 Barrer | 0.7 Barrer | 73 Barrer | *c1ccc2c3c(ccc2c1)OC1Oc2ccc4cc(N5C(=O)c6ccc(C(c7ccc8c(c7)C(=O)N(*)C8=O)(C(F)(F)F)C(F)(F)F)cc6C5=O)ccc4c2C31 (repeat unit)
15 | 1.05 Barrer |  |  | 0.014 Barrer |  | *c1cccc(C(c2cccc(N3C(=O)c4ccc(C(=O)c5ccc6c(c5)C(=O)N(*)C6=O)cc4C3=O)c2)(C(F)(F)F)C(F)(F)F)c1 (repeat unit)
16 | 0.301 Barrer | 0.012 Barrer | 0.081 Barrer | 0.0064 Barrer |  | *c1cccc(N2C(=O)c3ccc(Oc4ccc5c(c4)C(=O)N(*)C5=O)cc3C2=O)c1 (repeat unit)
17 | 0.5 Barrer | 0.0181 Barrer | 0.13 Barrer | 0.008 Barrer | 3.6 Barrer | *c1cccc(Oc2cccc(-n3c(=O)c4cc5c(=O)n(*)c(=O)c5cc4c3=O)c2)c1 (repeat unit)
18 | 2.1 Barrer | 0.1 Barrer | 0.68 Barrer | 0.032 Barrer | 14 Barrer | *c1cccc(Oc2cccc(N3C(=O)c4ccc(C(c5ccc6c(c5)C(=O)N(*)C6=O)(C(F)(F)F)C(F)(F)F)cc4C3=O)c2)c1 (repeat unit)
19 | 2.34 Barrer | 0.095 Barrer | 0.73 Barrer | 0.0578 Barrer |  | *c1cccc(S(=O)(=O)c2cccc(N3C(=O)c4ccc(C(c5ccc6c(c5)C(=O)N(*)C6=O)(C(F)(F)F)C(F)(F)F)cc4C3=O)c2)c1 (repeat unit)

The remaining lines, values behind:

Row | Structure (SMILES) | CO2 permeability | N2 permeability | O2 permeability | CH4 permeability | H2 permeability
20 | */C=C/c1ccc(*)cc1[Si](C)(C)C(C)(C)C (repeat unit) | 26 Barrer | 1.5 Barrer | 6.5 Barrer |  | 
21 | */C=C/c1ccc(*)cc1[Si](C)(C)CCCC (repeat unit) | 14 Barrer | 1.1 Barrer | 3.5 Barrer |  | 
22 | */C=C/c1ccc(*)cc1[Si](C)(C)CCCCCCCC (repeat unit) | 60 Barrer | 3.9 Barrer | 12 Barrer |  | 
23 | */C=C/c1ccc(*)cc1[Si](C)(C)CCCCCCCCCCCCCCCCCC (repeat unit) | 61 Barrer | 4.5 Barrer | 12 Barrer |  | 
24 | *C(=C(*)c1ccc2c(c1)Cc1ccccc1-2)c1ccc([Si](C)(C)C)cc1 (repeat unit) | 6450 Barrer | 950 Barrer | 1650 Barrer | 2000 Barrer | 3100 Barrer
25 | *C(=C(*)c1ccc2c(c1)Cc1ccccc1-2)c1ccccc1 (repeat unit) | 8500 Barrer | 1300 Barrer | 2150 Barrer | 2400 Barrer | 3650 Barrer
26 | *C(=C(*)c1cccc(O[Si](C)(C)C(C)(C)C)c1)c1ccc(C(C)(C)C)cc1 (repeat unit) | 7200 Barrer | 1300 Barrer | 2100 Barrer | 3300 Barrer | 3900 Barrer
27 | *C(=C(*)c1cccc(O[Si](C)(C)C(C)(C)C)c1)c1ccc([Si](C)(C)C)cc1 (repeat unit) | 2900 Barrer | 430 Barrer | 810 Barrer | 1100 Barrer | 1600 Barrer
28 | *C(=C(*)c1cccc([Si](C)(C)C)c1)c1ccccc1 (repeat unit) | 4700 Barrer | 610 Barrer | 1200 Barrer | 1500 Barrer | 2100 Barrer
29 | *C(=O)c1ccc(C2(c3ccc(C(=O)c4ccc(Oc5ccc(C(=O)c6ccc(C(=O)c7ccc(Oc8ccc(*)cc8)cc7)cc6)cc5)cc4)cc3)OC(=O)c3ccccc32)cc1 (repeat unit) | 2.14 Barrer | 0.0729 Barrer | 0.51 Barrer | 0.069 Barrer | 7.5 Barrer
30 | *C(C)=C(*)C(C)C (repeat unit) | 10700 Barrer | 1250 Barrer | 2700 Barrer | 2690 Barrer | 5720 Barrer
31 | *C(C)=C(*)CC(C)C (repeat unit) | 900 Barrer | 93 Barrer | 245 Barrer | 190 Barrer | 750 Barrer
32 | *C(C)=C(*)CCCCC (repeat unit) | 200 Barrer | 21 Barrer | 57 Barrer | 51 Barrer | 150 Barrer
33 | *CC(*)C (repeat unit) | 9.2 Barrer | 0.5 Barrer | 1.41 Barrer |  | 
34 | *CC(*)OC1C2CC3CC(C2)CC1C3 (repeat unit) | 25.2 Barrer | 1.69 Barrer | 6.01 Barrer |  | 
35 | *CC(*)OC1CC2CC1C1CCCC21 (repeat unit) | 12.6 Barrer | 1.2 Barrer | 3.06 Barrer |  | 
36 | *CC(*)OC1CC2CCC1C2 (repeat unit) | 25 Barrer | 0.96 Barrer | 3.55 Barrer |  | 
37 | *CC(*)OCc1ccccc1 (repeat unit) | 11.1 Barrer | 0.79 Barrer | 2.33 Barrer |  | 
38 | *CC(O)CO* (repeat unit) | 0.012 Barrer |  | 0.0038 Barrer |  | 0.0228 Barrer
39 | *CCC(F)(F)C(*)(F)F (repeat unit) | 1.98 Barrer | 0.182 Barrer | 0.532 Barrer |  | 
40 | *CCOC(=O)c1ccc2cc(C(=O)O*)ccc2c1 (repeat unit) | 0.131 Barrer |  | 0.0132 Barrer |  | 
41 | *CO* (repeat unit) | 0.45 Barrer | 0.024 Barrer | 0.09 Barrer |  | 
42 | *Cc1cc(Cl)c(C*)cc1Cl (repeat unit) | 0.783 Barrer | 0.0271 Barrer | 0.181 Barrer |  | 
43 | *Cc1ccc(C*)c(C)c1 (repeat unit) | 0.265 Barrer | 0.0157 Barrer | 0.0572 Barrer |  | 0.994 Barrer
44 | *Cc1ccc(C*)c(Cl)c1 (repeat unit) | 0.0867 Barrer | 0.006 Barrer | 0.0456 Barrer |  | 0.931 Barrer
45 | *Cc1ccc(C*)cc1 (repeat unit) | 1.3 Barrer | 0.047 Barrer | 0.235 Barrer |  | 3.2 Barrer
46 | *Nc1ccc(*)cc1OC (repeat unit) | 1.06 Barrer | 0.047 Barrer | 0.202 Barrer |  | 6.04 Barrer
